Measurements as given in patent publication US20060241082A1, “Modulating vesicular monoamine transporter trafficking and function: a novel approach for the treatment of parkinson's disease” (priority 2002, published 2006).
Values joined by “and” are separate entries in the source; they are usually repeats but may differ in a detail not shown here. Identical values can stand only once. Like-named read-outs stand apart in the source and are kept apart here.

Tests used:
VMAT-2 [1] = assay: VMAT-2 immunoreactivity in striatal subcellular fractions of treated mice (Western blot); format: in vivo, mouse; details: methamphetamine 4 x 10 mg/kg s.c., 1 h
Method: Fresh striatal tissue was homogenized in ice-cold 0.32 M sucrose and centrifuged (800×g for 12 min: 4° C.).
VMAT-2 antibody was kindly donated by Dr. John Haycock at the Louisiana State University, New Orleans, La. (Antibody can be purchased from Chemicon, Temecula, Calif. and the reagent # is AB1767). Binding of VMAT-2 antibody was performed using 60 μl of whole synaptosomal, plasmalemmal membrane or vesicle subcellular fractions. Samples were added to 20 μl of loading buffer (final concentration: 2.25% SDS, 18% glycerol, 180 mM Tris Base (pH 6.8), 10% β-mercaptoethanol and bromophenol blue). Approximately 60 μg P2, 40 μg protein P3, and 20 μg protein S3 were loaded per well in a 10% SDS-polyacrylamide gel. Following electrophoresis, samples were transferred to polyvinylidene difluoride hybridization transfer membrane (New England Nuclear (NEN), Boston, Mass.). All subsequent incubation steps were performed at room temperature while shaking. Each membrane was first blocked for 2 h in 100 ml of Tris buffer saline with tween (TBST; 250 mM NaCl, 50 mM tris pH 7.4 and 0.05% tween 20) containing 5% nonfat dry milk. Each membrane was then incubated with anti-VMAT-2 antibody (1:4000 dilution) in 13 ml of TBST with 5% milk for 1 h and then washed 5 times (2×1 min wash: 3×5 min wash) in 70 ml TBST with 5% milk. The membranes then were incubated for 1 h with the goat F (ab′)2 anti-rabbit immunoglobulin antibody (Biosource International, Camarillo, Calif.) at a 1:2000 dilution in TBST with 5% milk. This secondary antibody had been affinity-isolated, preabsorbed with human immunoglobulin, and conjugated with horseradish peroxidase. The membranes were then washed 5 times (2×1 min wash: 3×5 min) with 70 ml TBST, and then developed with Renaissance Western Blot Chemiluminescence's Reagent Pus (NEN, Boston, Mass.), according to manufacturer specification. […] Bands on blots were quantified by densitometry measuring net intensity (the sum of the background-subtracted pixel values in the band area) using Kodak 1D image-analysis software.

VMAT-2 [2] = biological target: T1, VMAT-2 (Rattus norvegicus, UniProt Q01827); set-up: purified striatal vesicles prepared from treated rats; from tissue; host or cells: striatum of male Sprague-Dawley rats (synaptic vesicles; P2, P3, S3 fractions); details: rats, multiple METH; Brown et al., 2000; cited from earlier work
[3] = biological target: T2, plasmalemmal DA transporter (DAT) (Rattus norvegicus, UniProt P23977); details: rats, cited from earlier work
T2 construct: Uptake of [^3H]DA was determined in striatal synaptosomes; from tissue; host or cells: striatum of male Sprague-Dawley rats (synaptosomes, P2)

VMAT-2 [4] = biological target: T1, VMAT-2; format: in vivo; set-up: purified striatal vesicles prepared from treated rats; from tissue; host or cells: striatum of male Sprague-Dawley rats (synaptic vesicles; P2, P3, S3 fractions); details: for Km: read-out: Km of vesicular [3H]DA uptake
Method: Osmolarity was restored by addition of N-(2-hydroxyethyl)-piperazine-N′-2-ethanesulfonic acid (HEPES) and potassium tartrate 25 mM and 100 mM (final concentrations; pH 7.5 at 4° C.), respectively.

VMAT-2 [5] = biological target: VMAT-2 (Mus musculus, UniProt Q8BRU6); assay: [3H]DHTBZ binding in striatal vesicles prepared from treated mice; details: methamphetamine 4 x 10 mg/kg s.c., 2-h intervals, 1 and 24 h after treatment
Method: Binding of [^3H]DHTBZ was performed essentially as described by Brown et al. (2001a and 2001b) Briefly, 200 μl of the synaptic vesicles preparation (˜6 μg of protein) was incubated in wash buffer in the presence of [^3H]DHTBZ (2 nM final concentration) for 10 min at 25° C. The reaction was terminated by addition of 1 ml cold wash buffer and rapid filtration through Whatman GF/P filters soaked in 0.5% polyethylenimine. Filters were washed three times with ice-cold wash buffer. Nonspecific binding was determined by co incubation with 20 μM TBZ. All protein concentrations were determined by Bio-Rad protein assay (Bio-Rad Inc.)

[6] = Locomotor activity and rearing of treated rats; format: in vivo, rat; details: MPD 5-40 mg/kg s.c.
VMAT-2 [7] = biological target: T1, VMAT-2; assay: Direct in vitro application of MPD to vesicular [3H]DA uptake; format: biochemical; set-up: purified striatal vesicles prepared from treated rats; from tissue; host or cells: striatum of male Sprague-Dawley rats (synaptic vesicles; P2, P3, S3 fractions)
[8] = rats, single 15 mg/kg METH injection s.c., 1 h
[9] = MPD-treated rats, 40 mg/kg s.c., 1 h

T1 sequence (Q01827 whole entry): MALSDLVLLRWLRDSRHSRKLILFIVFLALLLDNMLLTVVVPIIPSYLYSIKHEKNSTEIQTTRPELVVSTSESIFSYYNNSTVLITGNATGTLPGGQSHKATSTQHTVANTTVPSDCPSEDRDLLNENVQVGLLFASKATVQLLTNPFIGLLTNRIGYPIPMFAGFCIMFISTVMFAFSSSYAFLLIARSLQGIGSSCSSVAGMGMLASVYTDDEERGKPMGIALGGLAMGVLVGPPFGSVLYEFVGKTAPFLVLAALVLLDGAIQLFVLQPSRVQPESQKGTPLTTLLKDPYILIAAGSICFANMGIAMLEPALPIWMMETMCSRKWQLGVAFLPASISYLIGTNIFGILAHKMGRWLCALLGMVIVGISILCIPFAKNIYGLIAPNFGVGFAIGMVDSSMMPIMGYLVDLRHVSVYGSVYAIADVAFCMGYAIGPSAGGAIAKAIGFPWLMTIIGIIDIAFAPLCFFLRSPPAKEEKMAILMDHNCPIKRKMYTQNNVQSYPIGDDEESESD
T2 sequence (P23977 whole entry): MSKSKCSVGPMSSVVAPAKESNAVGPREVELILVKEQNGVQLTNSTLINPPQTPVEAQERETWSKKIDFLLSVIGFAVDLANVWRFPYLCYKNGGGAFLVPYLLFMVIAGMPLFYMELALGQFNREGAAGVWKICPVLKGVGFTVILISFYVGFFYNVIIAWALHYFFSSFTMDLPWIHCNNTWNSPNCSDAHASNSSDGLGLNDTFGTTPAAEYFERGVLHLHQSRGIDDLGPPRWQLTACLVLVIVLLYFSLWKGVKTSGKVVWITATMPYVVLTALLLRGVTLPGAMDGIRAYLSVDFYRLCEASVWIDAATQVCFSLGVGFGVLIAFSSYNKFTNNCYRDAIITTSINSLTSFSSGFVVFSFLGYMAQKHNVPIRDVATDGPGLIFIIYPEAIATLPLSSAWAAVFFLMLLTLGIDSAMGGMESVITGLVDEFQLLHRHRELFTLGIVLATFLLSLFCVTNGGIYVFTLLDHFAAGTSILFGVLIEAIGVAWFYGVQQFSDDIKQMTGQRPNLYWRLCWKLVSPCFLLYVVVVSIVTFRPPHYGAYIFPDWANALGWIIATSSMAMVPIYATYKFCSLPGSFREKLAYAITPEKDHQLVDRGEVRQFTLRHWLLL
Sequence of VMAT-2 (Mus musculus, UniProt Q8BRU6) (Q8BRU6 whole entry): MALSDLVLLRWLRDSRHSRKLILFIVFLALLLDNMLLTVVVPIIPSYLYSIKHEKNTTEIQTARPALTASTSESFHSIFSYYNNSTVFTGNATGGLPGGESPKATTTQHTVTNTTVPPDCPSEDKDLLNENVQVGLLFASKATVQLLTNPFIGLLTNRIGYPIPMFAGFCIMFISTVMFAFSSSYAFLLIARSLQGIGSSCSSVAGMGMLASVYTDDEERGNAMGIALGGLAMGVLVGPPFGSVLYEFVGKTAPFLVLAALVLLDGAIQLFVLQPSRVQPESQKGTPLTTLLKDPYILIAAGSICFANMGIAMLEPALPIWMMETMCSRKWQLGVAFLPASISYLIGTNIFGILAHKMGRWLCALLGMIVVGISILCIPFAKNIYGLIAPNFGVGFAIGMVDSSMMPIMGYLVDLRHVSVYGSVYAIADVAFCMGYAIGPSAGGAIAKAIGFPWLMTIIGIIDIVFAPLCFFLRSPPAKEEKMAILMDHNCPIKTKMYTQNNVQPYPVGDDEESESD

CN[C@@H](C)Cc1ccccc1 (racemic) [METH, methamphetamine]
VMAT-2 immunoreactivity in the membrane-associated fraction (VMAT-2 [1]): increasing | VMAT-2 immunoreactivity in the vesicle preparation (VMAT-2 [1]): decreased | total VMAT-2 immunoreactivity in synaptosomes (VMAT-2 [1]): little effect | deficit in vesicular DA uptake (VMAT-2 [2]): ≈ 65% | magnitude of the decrease in plasmalemmal DA uptake ([3]; METH 4 x 10 mg/kg s.c., 2-h intervals, 1 h, Kokoshka 1998, Fleckenstein 1999, Metzger 2000): 70-80% | recovery of plasmalemmal DA uptake after 24 h ([3]; multiple METH, Kokoshka et al., 1998): ≈ 60 % of control values | persistence of the decreases in vesicular DA uptake and DHTBZ binding after treatment (VMAT-2 [4]; rats, METH 4 x 7.5 mg/kg s.c.): at least 6 h | vesicular DA uptake 1 h after the last METH injection (VMAT-2 [4]; rats, METH 4 x 7.5 mg/kg s.c., 2-h intervals): rapidly decreased | Vmax of vesicular [3H]DA uptake (VMAT-2 [4]; [8]): 607 fmol/μg protein/min | Km (VMAT-2 [4]; [8]): 187 nM | decrease in vesicular [3H]DA uptake (VMAT-2 [4]; rats, single METH 15 mg/kg s.c., 1 h): 25% and 23% | deficit in vesicular [3H]DA uptake 24 h after treatment (VMAT-2 [4]; rats, single METH 15 mg/kg s.c., 24 h): recovered | [3H]DHTBZ binding (VMAT-2 [5]): rapidly decreased

COC(=O)C(c1ccccc1)C1CCCCN1 (centres unmarked) [MPD, methylphenidate]
transporter Vmax of vesicular [3H]DA uptake (VMAT-2 [4]; [9]): 2350±250 fmol/μg protein/3 min | Km (VMAT-2 [4]; [9]): 230 ± 10 nM | effect of MPD post-treatment on the METH-induced decrease in vesicular DA uptake (VMAT-2 [4]; rat, in vivo): reversed | vesicular DA uptake after MPD treatment per se (VMAT-2 [4]; rats, MPD 5 mg/kg s.c. injections): increased | vesicular [3H]DA uptake after a single MPD administration (VMAT-2 [4]; rats, MPD 5, 10, 20, or 40 mg/kg s.c., 1 h): increases | reversal of the increases in vesicular [3H]DA uptake and [3H]DHTBZ binding (VMAT-2 [4]; rats, after a 40 mg/kg MPD administration): ≤ 12 h | onset of the increases in vesicular [3H]DA uptake and [3H]DHTBZ binding (VMAT-2 [4]; rats, single MPD s.c.): ≤ 30 min | locomotor activity and rearing as compared with controls [6]: increased | IC50 (VMAT-2 [7]; in vitro direct application, n=3): 19.8 ± 4 µM | vesicular [3H]DA uptake on direct application of MPD (VMAT-2 [7]; in vitro, concentrations of 1 nM to 1 μM): without effect
